Test results reported in patent publication US4737500A, “1-substituted-4-(thiazolyl-2-)-piperazines, -piperidines and -tetrahydropyridines useful as anxiolytic, psychogeriatric, antidepressant and antischizophrenic agents” (priority 1985, dated 1988).
pIC50: −log10 of the molar value.

Legend:
[1] = molecular target: T1, 5HT-1A-binding sites in the pig cortex (Sus scrofa, UniProt A0A4X1UTF5); experiment: 5HT-1A-binding affinity test, binding of 3H-8-hydroxy-2-(di-n-propylamino)-tetraline (3H-PAT)
T1 construct: from tissue; host or cells: pig cortex
T1 sequence (A0A4X1UTF5 1-422): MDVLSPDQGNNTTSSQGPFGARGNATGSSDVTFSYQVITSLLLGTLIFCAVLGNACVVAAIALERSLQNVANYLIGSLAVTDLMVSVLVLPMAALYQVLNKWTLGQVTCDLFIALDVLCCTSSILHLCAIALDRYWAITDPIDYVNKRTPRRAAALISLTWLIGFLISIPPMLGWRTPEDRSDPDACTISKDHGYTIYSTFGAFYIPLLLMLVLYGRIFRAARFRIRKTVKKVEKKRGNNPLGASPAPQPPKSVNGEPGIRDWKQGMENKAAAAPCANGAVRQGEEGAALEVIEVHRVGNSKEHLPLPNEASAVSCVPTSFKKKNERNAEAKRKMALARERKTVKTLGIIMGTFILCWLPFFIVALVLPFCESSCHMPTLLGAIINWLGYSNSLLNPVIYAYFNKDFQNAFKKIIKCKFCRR

[2] = aggression test: social interactions in male mice in aggression-evoking social encounters; format: in vivo, mouse; settings: 0.3 mg/kg p.o. (acute administration)
Experimental: The compounds of formula I promote social interactions after acute and chronic administration of 0.3 to 10 mg/kg p.o. in male mice in aggression-evoking social encounters [A. K. Dixon, Triangle 21 (1982) 95-105; M. Krsiak, Brit. J. Pharmacol. 55 (1975) 141-150]. […] M. Y. Spiegelstein, A. Levy, Elsevier, Amsterdam (1982) 39-55].

[3] = atypical dozing in the rat-8h-sleep-EEG; format: in vivo; settings: 10 mg/kg p.o.
[4] = 8h-sleep-EEG: sleep phases in the sleep/wake cycle in the rat; format: in vivo; settings: 10 mg/kg p.o.; rat 8h-sleep-EEG
Experimental: Further, the compounds of formula I modify the sleep phases in the sleep/wake cycle in the rat after administration of 3 to 30 mg/kg p.o. [H. Kleinlogel, EEG in Drug Research, Ed. H. Hermann, Gustav Fischer Verlag, Stuttgart, New York, 75-88 (1982)]. In the 8h-EEG, the slow wave phase (SWS) is increased, whereas the spindle phase and the paradoxical sleep phase (PS) are reduced. In Hjorth, parameters are the mean EEG amplitude (CA) and the complexity (CCF) increased.

[5] = reference antidepressants, A. K. Dixon 1982; cited from earlier work
[6] = reference antischizophrenics; Sayers and Kleinlogel 1974; cited from earlier work
[7] = characteristic for antidepressants; H. Kleinlogel, page 83; cited from earlier work

SMILES: COc1ccc(Cl)cc1C(=O)NCCN1CCN(c2nc(C(C)(C)C)cs2)CC1 [Example 8, 5-Chloro-2-methoxy-N-(2-(4-(4-(1,1-dimethylethyl)-2-thiazolyl)-1-piperazinyl)ethyl)-benzamide]
- pIC50 [1]: 6.22
- promotion of social interactions [2]: promotes social interactions
- atypical dozing [3]: shows atypical dozing
- complexity (CCF) [4]: increased
- mean EEG amplitude (CA) [4]: increased
- paradoxial sleep phase (PS) [4]: reduces
- slow wave phase (SWS) [4]: increases
- spindle phase [4]: reduces

SMILES: CN(C)CCC=C1c2ccccc2CCc2ccccc21 [amitriptyline]
- promotion of social behaviour [5]: promote social behaviour

SMILES: O=C1CC2(CCCC2)CC(=O)N1CCCCN1CCN(c2ncccn2)CC1 [buspirone]
- pIC50 [1]: 6.40 to 8.00

SMILES: CN1CCN(C2=Nc3cc(Cl)ccc3Nc3ccccc32)CC1 [clozapine]
- atypical dozing characteristic for antischizophrenics [6]: atypical dozing characteristic

SMILES: CNCCCN1c2ccccc2CCc2ccccc21 [desipramine]
- decrease of paradoxical sleep phase [7]: decrease of paradoxical sleep phase

SMILES: CN(C)CCN1C(=O)c2ccccc2N(C)c2ccccc21 [dibenzepine]
- decrease of paradoxical sleep phase [7]: decrease of paradoxical sleep phase

SMILES: O=C(CCCN1CCC(O)(c2ccc(Cl)cc2)CC1)c1ccc(F)cc1 [haloperidol]
- atypical dozing characteristic for antischizophrenics [6]: atypical dozing characteristic

SMILES: CN(C)CCCN1c2ccccc2CCc2ccccc21 [imipramine]
- decrease of paradoxical sleep phase [7]: decrease of paradoxical sleep phase
- promotion of social behaviour [5]: promote social behaviour

SMILES: CN1CCN2c3ccccc3Cc3ccccc3C2C1 (stereo not drawn) [mianserine]
- decrease of paradoxical sleep phase [7]: decrease of paradoxical sleep phase

SMILES: CN1Cc2c(N)cccc2C(c2ccccc2)C1 (stereo not drawn) [nomifensine]
- decrease of paradoxical sleep phase [7]: decrease of paradoxical sleep phase
